melting point: 138 to 141 °C
SMILES: N#Cc1ccccc1-n1ccc2cc(-c3cccnc3)ccc21 [Example 58, 1-(2-Cyanophenyl)-5-(3-pyridyl)-1H-indole]
